Measured values as given in patent US12371454B2, “Cyclic peptide compound having Kras inhibitory action” (priority 2019, dated 2025).
Starred links: 1 amine or outer side, 2 acyl side, 3 side chain; linkers in the order of their positions; H or OH if unused. Positions of bridges follow the written chain, without caps; N, C: chain ends. Non-standard residues stand in square brackets, D forms with d. Residues, ends and D or L forms follow the SMILES beside them. *: point of attachment. hPhe(3-Cl-4-CF3) = N[C@@H](CCc1ccc(C(F)(F)F)c(Cl)c1)C(=O)O; NEtPhe(4-CF3) = CCN[C@@H](Cc1ccc(C(F)(F)F)cc1)C(=O)O; hPhe(4-CF3) = N[C@@H](CCc1ccc(C(F)(F)F)cc1)C(=O)O; NMePhe(4-Me) = CN[C@@H](Cc1ccc(C)cc1)C(=O)O; X56 = O=C([C@H](Cc1cc(F)ccc1F)N[*:1])[*:2]; NMedβ3hAla = C[C@H](CC(=O)[*:2])N(C)[*:1]; X32 = O=C(CN(CCN1CCC(F)(F)CC1)[*:1])[*:2]; NMeGly(cPent) = CN[C@H](C(=O)O)C1CCCC1; Phe(3-I) = N[C@@H](Cc1cccc(I)c1)C(=O)O; Pro(4,4-F2) = O=C(O)[C@@H]1CC(F)(F)CN1; NMe4Pal = CN[C@@H](Cc1ccncc1)C(=O)O; NMeGly(cBu) = CN[C@H](C(=O)O)C1CCC1; NMeY = CN[C@@H](Cc1ccc(O)cc1)C(=O)O; NMeCha = CN[C@@H](CC1CCCCC1)C(=O)O; NMeF = CN[C@@H](Cc1ccccc1)C(=O)O; NMeI = CC[C@H](C)[C@H](NC)C(=O)O; NMeD = CN[C@@H](CC(=O)O)C(=O)O; CH2CONHtBu = CC(C)(C)NC(=O)C*; NMeL = CN[C@@H](CC(C)C)C(=O)O; NMeV = CN[C@H](C(=O)O)C(C)C; d(β3hA) = C[C@@H](N)CC(=O)O; NMeAbu = CC[C@H](NC)C(=O)O; NMeS = CN[C@@H](CO)C(=O)O; NMeA = CN[C@@H](C)C(=O)O; NMeAib = CNC(C)(C)C(=O)O; Nle = CCCC[C@H](N)C(=O)O; Piperidide = C1CCN(*)CC1; Pra = C#CC[C@H](N)C(=O)O; Ac5c = NC1(C(=O)O)CCCC1; Aze = O=C(O)[C@@H]1CCN1; Ac4c = NC1(C(=O)O)CCC1; Aib = CC(C)(N)C(=O)O; Isopentyl = CC(C)CC*; Sar = CNCC(=O)O

What follows are compounds tested against T1, Kras and SOS1 (biotin-tagged human Kras loaded with GDP, His-tagged human SOS1) (Homo sapiens, UniProt P01116, G12D) (assay: Protein-protein interaction inhibition between Kras and SOS1 (KrasGl2D-SOS PPI) using AlphaScreen). Conditions: AlphaScreen; biotin-tagged human Kras loaded with GDP, His-tagged human SOS1; read-out: KRAS G12D-SOS PPI IC50.
T1 construct: made in house; host or cells: E. coli (stated for Kras only)
T1 sequence (P01116 1-188 isoform P01116-2 G12D): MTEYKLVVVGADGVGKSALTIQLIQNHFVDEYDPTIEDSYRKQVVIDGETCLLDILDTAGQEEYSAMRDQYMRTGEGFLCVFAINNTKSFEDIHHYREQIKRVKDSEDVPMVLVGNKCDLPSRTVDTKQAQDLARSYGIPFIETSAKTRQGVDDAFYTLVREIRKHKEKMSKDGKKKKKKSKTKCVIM
Format: binding
Procedure, shortened: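 Binding between SOS1 and Kras is detected as bead-proximity luminescence: illuminate Ni-conjugated donors (680 nm), collect 520-620 nm emission from streptavidin-conjugated acceptors; Kras carries biotin and GDP loaded after purification, SOS1 carries a His tag.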

| SMILES | IC50 [nM] |
| --- | --- |
| CCCC[C@@H]1NC(=O)[C@H](Cc2cc(F)ccc2F)NC(=O)CN(C)C(=O)[C@H](Cc2ccc(OC)cc2)N(C)C(=O)[C@@H]2CCN2C(=O)[C@H](C)N(C)C(=O)[C@H]([C@@H](C)CC)NC(=O)[C@H](CC)N(C)C(=O)C[C@@H](C(=O)N2CCCCC2)N(C)C(=O)[C@H](CC(C)C)NC(=O)C(C)(C)N(C)C1=O [Compound 1268] ([NMeAbu]I[NMeA][Aze][NMeY](Me)[Sar][X56][Nle][NMeAib]L[NMeD]-Piperidide; lactam N-11) | 19 |
| CC[C@H](C)[C@@H]1NC(=O)[C@H](CC(C)C)N(C)C(=O)C[C@@H](C(=O)N2CCCCC2)N(C)C(=O)[C@H](CC(C)C)N(C)C(=O)C(C)(C)NC(=O)[C@H](COCC(=O)NC(C)(C)C)N(C)C(=O)[C@H](CCc2ccc(C(F)(F)F)cc2)NC(=O)CN(C)C(=O)[C@H](COCCC(C)C)N(C)C(=O)CN(C)C(=O)CN(C)C1=O [Compound 1502] ([NMeL]I[Sar][Sar][NMeS](Isopentyl)[Sar][hPhe(4-CF3)][NMeS](CH2CONHtBu)[Aib][NMeL][NMeD]-Piperidide; lactam N-11) | 24 |
| CC[C@H](C)[C@@H]1NC(=O)[C@H](CC(C)C)N(C)C(=O)C[C@@H](C)N(C)C(=O)[C@H]([C@@H](C)CC)N(C)C(=O)C2(CCC2)NC(=O)[C@@H]2CC(F)(F)CN2C(=O)[C@H](CCc2ccc(C(F)(F)F)c(Cl)c2)NC(=O)CN(C)C(=O)[C@H](Cc2ccc(C(F)(F)F)cc2)N(CC)C(=O)[C@@H]2CCN2C(=O)[C@H](C)N(C)C1=O [Compound 833] (cyclo([Ac4c][NMeI][NMedβ3hAla][NMeL]I[NMeA][Aze][NEtPhe(4-CF3)][Sar][hPhe(3-Cl-4-CF3)][Pro(4,4-F2)])) | 9.1 |
| CC[C@H](C)[C@@H]1NC(=O)[C@H](C2CCCC2)N(C)C(=O)C[C@@H](C)NC(=O)[C@H](C(C)C)N(C)C(=O)C2(CCCC2)NC(=O)[C@@H]2CCCN2C(=O)[C@H](CCc2ccc(C(F)(F)F)c(Cl)c2)NC(=O)CN(C)C(=O)[C@H](CC2CCCCC2)N(C)C(=O)[C@@H]2CCN2C(=O)[C@H](C)N(C)C1=O [Compound 570] (cyclo([Ac5c][NMeV][d(β3hA)][NMeGly(cPent)]I[NMeA][Aze][NMeCha][Sar][hPhe(3-Cl-4-CF3)]P)) | 27 |
| CC[C@H](C)[C@@H]1NC(=O)[C@H](C2CCC2)N(C)C(=O)C[C@@H](C)NC(=O)[C@H](C(C)C)N(C)C(=O)C2(CCCC2)NC(=O)[C@@H]2CCCN2C(=O)[C@H](CCc2ccc(C(F)(F)F)c(Cl)c2)NC(=O)CN(C)C(=O)[C@H](CC2CCCCC2)N(C)C(=O)[C@@H]2CCN2C(=O)[C@H](C)N(C)C1=O [Compound 465] (cyclo([Ac5c][NMeV][d(β3hA)][NMeGly(cBu)]I[NMeA][Aze][NMeCha][Sar][hPhe(3-Cl-4-CF3)]P)) | 55 |
| CC[C@H](C)[C@@H]1NC(=O)[C@H](CC(C)C)N(C)C(=O)C[C@@H](C)NC(=O)[C@H](C(C)C)N(C)C(=O)C2(CCCC2)NC(=O)[C@@H]2CCCN2C(=O)[C@H](CCc2ccc(C(F)(F)F)c(Cl)c2)NC(=O)CN(C)C(=O)[C@H](Cc2ccccc2)N(C)C(=O)CN(C)C(=O)CN(C)C1=O [Compound 1606] (cyclo([Ac5c][NMeV][d(β3hA)][NMeL]I[Sar][Sar][NMeF][Sar][hPhe(3-Cl-4-CF3)]P)) | 15 |
| C#CC[C@@H]1NC(=O)[C@H](Cc2cccc(I)c2)NC(=O)CN(C)C(=O)[C@H](Cc2ccc(OC)cc2)N(C)C(=O)[C@@H]2CCN2C(=O)[C@H](C)N(C)C(=O)[C@H]([C@@H](C)CC)NC(=O)[C@H](CC(C)C)N(C)C(=O)C[C@@H](C(=O)N2CCCCC2)N(C)C(=O)[C@H](CC(C)C)NC(=O)C(C)(C)N(C)C1=O [Compound 1350] ([NMeL]I[NMeA][Aze][NMeY](Me)[Sar][Phe(3-I)][Pra][NMeAib]L[NMeD]-Piperidide; lactam N-11) | 17 |
| CC[C@H](C)[C@@H]1NC(=O)[C@H](CC(C)C)N(C)C(=O)C[C@@H](C)NC(=O)[C@H](C(C)C)N(C)C(=O)C2(CCCC2)NC(=O)[C@@H]2CCCN2C(=O)[C@H](CCc2ccc(C(F)(F)F)c(Cl)c2)NC(=O)CN(C)C(=O)[C@H](CC2CCCCC2)N(C)C(=O)CN(C)C(=O)CN(CCN2CCC(F)(F)CC2)C1=O [Compound 635] (cyclo([Ac5c][NMeV][d(β3hA)][NMeL]I[X32][Sar][NMeCha][Sar][hPhe(3-Cl-4-CF3)]P)) | 190 |
| CC[C@H](C)[C@@H]1NC(=O)[C@H](CC(C)C)N(C)C(=O)C[C@@H](C(=O)N(C)C)N(C)C(=O)[C@H]([C@@H](C)CC)N(C)C(=O)[C@H](C)NC(=O)[C@H](Cc2ccncc2)N(C)C(=O)[C@H](CCc2ccc(C(F)(F)F)c(Cl)c2)NC(=O)CN(C)C(=O)[C@H](Cc2ccc(C)cc2)N(C)C(=O)[C@@H]2CCN2C(=O)[C@H](C)N(C)C1=O [Compound 1973] ([NMeL]I[NMeA][Aze][NMePhe(4-Me)][Sar][hPhe(3-Cl-4-CF3)][NMe4Pal]A[NMeI][NMeD]-NMe2; lactam N-11) | 7.1 |
